Experimental data from US11602514B2, “Medicament having anti-inflammatory bowel disease function, and preparation method therefor and application thereof” (SUZHOU PHARMAVAN CO., LTD, priority 2018, dated 2023).
“Also recorded” adds a separate entry of the source.

How the values were obtained:
[1] = test system: COX2 protein expressed by mouse macrophages RAW264.7; test: COX2 protein expression in LPS-induced RAW264.7 macrophages (blot); assay type: cell-based; conditions: FIG. 8
Experimental: (§1) Effects of myricanol derivatives on the expression of inflammatory factors such as IL-6, TNF-α, PEG2 secreted by a mouse macrophage cell strain RAW 264.7 induced by bacterial lipopolysaccharide (hereinafter referred to as LPS) stimulus: A pre-prepared cell suspension was inoculated in a 96-well plate at 15000 cells/well and 100 μl/well and cultured overnight in an incubator with 5% CO2 at 37° C. At 80% cell confluence, the original culture medium was discarded, and each well was added with 100 μl of prepared drug solution to be tested with a different concentration, cultured for 1 h, and then added with a LPS solution, where the final concentration of LPS in the culture system was 100 ng/mL. Each concentration was set with 3 parallel wells, and a cell control group (no drug and no solvent) and a blank medium control group (no cells, a well for zero adjustment) were set. They were cultured for another 24 h. Cell culture supernatants were aspirated, and an R&D ELISA detection kit (M6000B; MTA00B; VAL601) was used for detecting the expression of the inflammatory factors such as IL-6, TNF-α, and PEG2 in each group. Cell proteins were collected, and a […] method was used for detecting COX-2 protein expression in each group.

[2] = test system: mouse macrophages RAW264.7; test: effect on proliferation activity of mouse macrophages RAW264.7; assay type: cell-based; conditions: 80 μM; n=3; FIG. 4
[3] = acute toxicity, single oral dose; assay type: in vivo; conditions: both sexes, SD, rat, in vivo, po; single intragastric administration; read-out: MTD (tolerance to acute toxicity of a single dosage)
From the text: (§2) Trial method: 30 SD rats, half male and half female, were used. The average weight was 160-200 g for female rats and 180-220 g for male rats when grouped. An individual weight should be within ±20% of the average weight. Before the test, animals needed to accommodate to the environment for at least 5 days, and healthy rats (female rats should be not pregnant) were selected as test animals. Matter detected during the accommodation period mainly was: whether the rats were consistent with quality indexes required in the order; detection of general conditions; and whether the weight was within the weight range required by the test. Unqualified abnormal animals were excluded from the test. A single dosage was orally administered to rats at a low, medium, or high dose. […] A control group was set with the oral administration of the same volume of solvent.
(§3) The rats were observed about 0-2 h and 4-6 h after each administration. If a toxicity symptom occurs, the rats may be observed more times. (2) Gross anatomical observation: on the 14th day of the test, all surviving rats in each group were dissected and observed, and for administration sites and gross dissection, abnormal organs and tissues which were observed and found to be potentially related to test samples were photographed and recorded. (3) Disposal of dying animals: status of rats and observation time were recorded, and their weights were measured. (4) Disposal of dead animals: the time of death or when a rat was found dead were recorded. The rat was measured for weight before quickly dissected for gross observation and speculated for a cause of death.

SD rats = test: acute toxicity, single oral dose; assay type: in vivo; conditions: single intragastric administration, 14 days observation
From the text: as §2, §3

[4] = test system: IL-6 secreted by mouse macrophages RAW264.7 induced by LPS; test: IL-6 secreted by LPS-induced RAW264.7 macrophages (ELISA); assay type: cell-based; conditions: LPS 100 ng/mL, 24 h; FIG. 5
Experimental: as §1

[5] = test system: IBD model induced by 2.5% TNBS; test: TNBS-induced rat in vivo model of IBD; set-up: species or system SD rats; conditions: 6 days; for injuries of colorectal ulcers (anatomical and pathological HE): FIGS. 20 and 21
Experimental: Test method: female SPF-grade SD rats each with a weight of 180-200 g were subjected to adaptive feeding for 5-7 days, and then started to be modeled. At the time of modeling, the rats were anesthetized, a pre-labeled cat catheter was inserted through the anus into the colon for 8 cm, 250 μL of 2.5% (wt/vol) TNBS solution was slowly injected into the cavity of the colon, the rat was inverted for 1 min, and then the catheter was slowly removed from the intestine. The rat was hold with its head down towards for 1 min and then put back to a cage. Rats in a blank group were administered with the same volume of normal saline. On the second day of modeling, i.e., D1, the medicament was administered through intragastric administration for 6 continuous days.
Detection indexes: the weight of each group of animals was observed and recorded every day, and feces of each animal were collected at the beginning of experiments to detect occult blood in the feces. If obvious blood in the feces cannot be determined, an occult blood detection kit was used for confirming the occult blood, and the result was recorded on an experimental record paper and photographed. After the end of the experiments, the fecal traits, occult blood, and weight change rate of each animal were scored, and the scores were added to give a DAI score for each animal. Colorectal tissue samples of the animals were collected and a wet weight was weighted for the subsequent pathological detection.

[6] = test system: PGE2 secreted by mouse macrophages RAW264.7 induced by LPS; test: PGE2 secreted by LPS-induced RAW264.7 macrophages (ELISA); assay type: cell-based; conditions: for PGE2: LPS alone 1154.90 ± 84.20, control −407.37 ± 57.67
Experimental: as §1

COc1c2cc(c(O)c1OC)CCCCC(OS(=O)(=O)O)CCc1ccc(O)c-2c1 (centres unmarked) [compound H, 11-sulfonyloxy myricanol]
COX2 protein expression inhibition compared with myricanol [1]: better inhabitation effects than myricanol
inhibition of protein expression of IBD-related COX2 [1]: can inhibit
effect on proliferation activity of mouse macrophages RAW264.7 [2]: no significant effects
MTD at 14 days [3]: > 1500 mg/kg
Test Endpoint (toxic side effects) (SD rats; 100 mg/kg): No obvious toxic
Test Endpoint (toxic side effects) (SD rats; 300 mg/kg): No obvious toxic
Test Endpoint (toxic side effects) (SD rats; 1000 mg/kg): No obvious toxic
Test Endpoint (toxic side effects) (SD rats; 1500 mg/kg): No obvious toxic
inhibition of LPS-induced IL-6 secretion of RAW264.7 cells [4]: very strong effects of inhibiting
colorectal wet weight (edema) ([5]; 12.5 mg/kg intragastric, no statistical difference, FIG. 15): trend of reducing the edema
area of colorectal ulcers ([5]; oral 12.5 mg/kg, FIG. 16): significantly reducing the area of colorectal ulcers
area of colorectal ulcers, efficacy compared with 5-ASA ([5]; oral 12.5 mg/kg, FIG. 16): slightly better efficacy than 5-aminosalicylic acid (5-ASA)
colorectal inflammation, efficacy compared with 5-ASA ([5]; oral 12.5 mg/kg, FIG. 17): substantially same efficacy as 5-aminosalicylic acid (5-ASA)
inflammation score of colorectal pathological HE ([5]; oral 12.5 mg/kg, FIG. 17, 12.5 mg/kg): significantly reducing the level of colorectal inflammation; also recorded: significantly improving the score of colorectal inflammation
colorectal total injuries, efficacy compared with 5-ASA ([5]; oral 12.5 mg/kg, FIG. 18): substantially same efficacy as 5-aminosalicylic acid (5-ASA)
score of total injuries of colorectal pathological HE ([5]; oral 12.5 mg/kg, FIG. 18, 12.5 mg/kg): significantly reducing the level of colorectal total injures; also recorded: significantly reducing the degree of overall colorectal injuries
injury score of colorectal ulcers, efficacy compared with 5-ASA ([5]; oral 12.5 mg/kg, FIG. 19): slightly better efficacy than 5-aminosalicylic acid (5-ASA)
score of ulcerative injuries of colorectal pathological HE ([5]; oral 12.5 mg/kg, FIG. 19, 12.5 mg/kg): significantly reducing the injury score of colorectal ulcers; also recorded: significantly reducing the severity of injuries
injuries of colorectal ulcers (anatomical and pathological HE) ([5]; oral 12.5 mg/kg): effect of reducing injuries of colorectal ulcers
injuries of colorectal ulcers (anatomical and pathological HE) ([5]; oral 25 mg/kg): effect of reducing injuries of colorectal ulcers
dose dependence of the activity for inhibiting PGE2 ([6]; FIG. 9): well dose-dependent
inhibition of PGE2 secreted by RAW264.7 induced by LPS ([6]; LPS 100 ng/mL, 24 h, FIGS. 7 and 9): significant effect of inhibiting PGE2; also recorded: strong ability to inhibit
PGE2 ([6]; LPS + 10 μM): 804.30 ± 18.46 pg/mL
PGE2 ([6]; LPS + 20 μM): 604.66 ± 97.52 pg/mL
PGE2 ([6]; LPS + 30 μM): 448.16 ± 55.26 pg/mL
PGE2 ([6]; LPS + 40 μM): 289.30 ± 109.41 pg/mL
PGE2 ([6]; LPS + 60 μM): -82.01 ± 357.30 pg/mL
PGE2 ([6]; LPS + 80 μM): -338.14 ± 138.40 pg/mL
PGE2 inhibition compared with myricanol ([6]; dose of 20 μM, FIG. 9): better inhabitation effect than myricanol
